Reference: patent US7056532B1, “Compositions for delivery of biological agents and methods for the preparation thereof” (Univ. Nebraska Bd. of Regents, priority 1997, dated 2006)

Test: Binding isotherms of surfactants to block copolymer (ion-selective electrode)
Type: physicochemical
Details: FIG. 1, dodecyl- versus cetyl- substituent
Description: While not wishing to be bound by any particular theory, it is believed that the above-described surfactants and block copolymers of opposite charge form stable complexes due to cooperative binding. (See, e.g., Goddard, In Interactions of Surfactants with Polymers and Proteins. Goddard and Ananthapadmanabhan, Eds., pp. 171 et seq., CRC Press, Boca Raton, Ann Arbor, London, Tokyo, 1992). Cooperative binding occurs in the sense that binding of surfactant molecules to the block copolymer is enhanced by the presence of other molecules of the same or a different surfactant already bound to the same copolymer. According to the cooperative binding mechanism which is believed to underlie this invention, surfactant binds electrostatically to the oppositely charged P-type segments of the block copolymer to form supramolecular complexes. These complexes are cooperatively stabilized by the interactions of the hydrophobic parts of surfactant molecules bound to the same P-type segment with each other. Indeed, it appears that without these hydrophobic interactions, formation of the desired complex would not occur. FIG. 1 presents the binding isotherms for interaction of cetylpyridinium bromide and dodecylpyridinium bromide with the polyethylene oxide-block-poly(sodium methacrylate) block copolymer. […] This binding mechanism is, in particular, characteristic for surface active biological agents. […]

Compound: CCCCCCCCCCCC[n+]1ccccc1.[Br-] [dodecylpyridinium bromide]
- stability of the complex with polyethylene oxide-block-poly(sodium methacrylate): decreases the stability of the complex more than ten-fold
